The data set deals with rodent carcinogenicity bioassays, tumor incidence. Description: CCRIS carcinogenicity studies. To be noted: Dose: 0. An outline of the steps: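 Archive of carcinogenicity, mutagenicity, tumor promotion and tumor inhibition results drawn from journals, NCI reports and other sources, expert-reviewed; covers 1985-2011 and is no longer updated.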

Structures are written as SMILES. Activity calls are given as the source filed them. How the calls were made is not given here.

In PubChem BioAssay AID1259411 (Chemical Carcinogenesis Research Information System (CCRIS), 2018) one finds carcinogen call data, which are given here for 8 molecules.

As to `CCN(N=O)C(=O)NCCO`, the carcinogen call is “active; positive” (Species: RAT, Strain/Sex: F344/FEMALE, Route: INTRAVESICULAR, 3.6 MG 2/WK FOR 30 WK (STUDY DURATION: LIFETIME), Tumor Site: Type of Lesion: BLADDER: TUMOR, BRAIN: TUMOR); “active; positive” (Species: RAT, Strain/Sex: F344/FEMALE, Route: ORAL, 37, 74 MG/L IN DRINKING WATER 5 D/WK FOR 30 WK (STUDY DURATION: LIFETIME), 37, 74 MG/L IN DRINKING WATER 5 D/WK FOR 30 WK (STUDY DURATION: LIFETIME), Tumor Site: Type of Lesion: BLADDER: TUMOR, MAMMARY GLAND: TUMOR, UTERUS: TUMOR, NERVOUS SYSTEM: TUMOR, SKIN: TUMOR, MOUTH: TUMOR, Tumor Site: Type of Lesion: BLADDER: TUMOR, MAMMARY GLAND: TUMOR, UTERUS: TUMOR, NERVOUS SYSTEM: TUMOR, SKIN: TUMOR, MOUTH: TUMOR); “active; positive” (Species: RAT, Strain/Sex: F344/MALE, Route: GAVAGE, 3.6 MG IN 0.2 ML ETHYL ACETATE/CORN OIL (1:1) 2/WK FOR 31 WK (TOTAL DOSE: 223 MG) (STUDY DURATION: 80 WK), Tumor Site: Type of Lesion: LUNG: CARCINOMA, ADENOMA, BRAIN: TUMORS, THYROID: CARCINOMA OR ADENOMA, PERITONEUM: MESOTHELIOMA, ZYMBAL GLAND: CARCINOM, Tumor Site: Type of Lesion: LUNG: CARCINOMA, ADENOMA, BRAIN: TUMORS, THYROID: CARCINOMA OR ADENOMA, PERITONEUM: MESOTHELIOMA, ZYMBAL GLAND: CARCINOM); “active; positive” (Species: RAT, Strain/Sex: F344/MALE, Route: ORAL, 37, 74 MG/L IN DRINKING WATER 5 D/WK FOR 30 WK (STUDY DURATION: LIFETIME), 37, 74 MG/L IN DRINKING WATER 5 D/WK FOR 30 WK (STUDY DURATION: LIFETIME), Tumor Site: Type of Lesion: LUNG: TUMOR, BLADDER: TUMOR, MESOTHELIUM: TUMOR, NERVOUS SYSTEM: TUMOR, SKIN: TUMOR, Tumor Site: Type of Lesion: LUNG: TUMOR, BLADDER: TUMOR, MESOTHELIUM: TUMOR, NERVOUS SYSTEM: TUMOR, SKIN: TUMOR).

On to `Cc1ccc([N+](=O)[O-])cc1`, for which the carcinogen call by setting is: (Species: MOUSE, Strain/Sex: B6C3F1/FEMALE, Route: ORAL, 1250, 2500, 5000 PPM FOR 105-106 WK (STUDY DURATION: 105-106 WK), 1250, 2500, 5000 PPM FOR 105-106 WK (STUDY DURATION: 105-106 WK)) “inactive; negative”; (Species: MOUSE, Strain/Sex: B6C3F1/MALE, Route: ORAL, 1250, 2500, 5000 PPM FOR 105-106 WK (STUDY DURATION: 105-106 WK), 1250, 2500, 5000 PPM FOR 105-106 WK (STUDY DURATION: 105-106 WK), Tumor Site: Type of Lesion: LUNG: ALVEOLAR/BRONCHIOLAR ADENOMA OR CARCINOMA) “equivocal”; (Species: RAT, Strain/Sex: F344/FEMALE, Route: ORAL, 1250, 2500, 5000 PPM FOR 105-106 WK (STUDY DURATION: 105-106 WK), 1250, 2500, 5000 PPM FOR 105-106 WK (STUDY DURATION: 105-106 WK), Tumor Site: Type of Lesion: CLITORAL GLAND: ADENOMA OR CARCINOMA) “active; positive”; (Species: RAT, Strain/Sex: F344/MALE, Route: ORAL, 1250, 2500, 5000 PPM FOR 105-106 WK (STUDY DURATION: 105-106 WK), 1250, 2500, 5000 PPM FOR 105-106 WK (STUDY DURATION: 105-106 WK), Tumor Site: Type of Lesion: SKIN (SUBCUTANEOUS):FIBROMA, FIBROMA OR FIBROSARCOMA) “equivocal”.

Regarding `CCN(CC)c1ccc2c(-c3ccc(S(=O)(=O)O)cc3S(=O)(=O)[O-])c3ccc(=[N+](CC)CC)cc-3oc2c1`, the carcinogen call was “inactive; negative” (Species: RAT, Strain/Sex: F344/FEMALE, Route: ORAL, 2.5, 5% IN DIET FOR 106 WK (STUDY DURATION: 106 WK), 2.5, 5% IN DIET FOR 106 WK (STUDY DURATION: 106 WK)) and “inactive; negative” (Species: RAT, Strain/Sex: F344/MALE, Route: ORAL, 2.5, 5% IN DIET FOR 106 WK (STUDY DURATION: 106 WK), 2.5, 5% IN DIET FOR 106 WK (STUDY DURATION: 106 WK)).

Turning to `CC(F)(Cl)Cl`, the carcinogen call reads like this: (Species: RAT, Strain/Sex: SPRAGUE-DAWLEY/FEMALE, Route: INHALATION, 1500, 5000, 20000 PPM 6 HR/D 5 D/WK FOR 104 WK (THE HIGH EXPOSURE LEVEL WAS INCREASED FROM 15000 PPM TO 20000 PPM AFT, 1500, 5000, 20000 PPM 6 HR/D 5 D/WK FOR 104 WK (THE HIGH EXPOSURE LEVEL WAS INCREASED FROM 15000 PPM TO 20000 PPM AFT) “inactive; negative”; (Species: RAT, Strain/Sex: SPRAGUE-DAWLEY/MALE, Route: INHALATION, 1500, 5000, 20000 PPM 6 HR/D 5 D/WK FOR 104 WK (THE HIGH EXPOSURE LEVEL WAS INCREASED FROM 15000 PPM TO 20000 PPM AFT, 1500, 5000, 20000 PPM 6 HR/D 5 D/WK FOR 104 WK (THE HIGH EXPOSURE LEVEL WAS INCREASED FROM 15000 PPM TO 20000 PPM AFT, Tumor Site: Type of Lesion: TESTES: INTERSTITIAL CELL ADENOMA) “active; positive”.

For `O=S(=O)(O)c1cc(S(=O)(=O)O)c2c(N=Nc3ccc(S(=O)(=O)O)c4ccccc34)c(O)ccc2c1`, the carcinogen call reads like this: (Species: RAT, Strain/Sex: WISTAR/FEMALE, Route: ORAL, 50, 500, 1250 MG/KG/D IN DIET TO PUPS OF PARENTS GIVEN THE SAME DIETARY DOSE LEVELS FOR 60 D PRIOR TO MATING (STUDY D, 50, 500, 1250 MG/KG/D IN DIET TO PUPS OF PARENTS GIVEN THE SAME DIETARY DOSE LEVELS FOR 60 D PRIOR TO MATING (STUDY D) “inactive; negative”; (Species: RAT, Strain/Sex: WISTAR/MALE, Route: ORAL, 50, 500, 1250 MG/KG/D IN DIET TO PUPS OF PARENTS GIVEN THE SAME DIETARY DOSE LEVELS FOR 60 D PRIOR TO MATING (STUDY D, 50, 500, 1250 MG/KG/D IN DIET TO PUPS OF PARENTS GIVEN THE SAME DIETARY DOSE LEVELS FOR 60 D PRIOR TO MATING (STUDY D) “inactive; negative”.

As for `CCc1nc(N)nc(N)c1-c1ccc(Cl)cc1`, the carcinogen call by setting is: (Species: MOUSE, Strain/Sex: B6C3F1/FEMALE, Route: ORAL, 500, 1000 PPM IN DIET, 500, 1000 PPM IN DIET) “inactive; negative”; (Species: RAT, Strain/Sex: F344/FEMALE, Route: ORAL, 200, 400 PPM IN DIET 5 D/WK, 200, 400 PPM IN DIET 5 D/WK) “inactive; negative”; (Species: RAT, Strain/Sex: F344/MALE, Route: ORAL, 200, 400 PPM IN DIET 5 D/WK, 200, 400 PPM IN DIET 5 D/WK) “inactive; negative”.

With `Cc1cccc(C)c1N`, the carcinogen call was “active; positive” (Species: RAT, Strain/Sex: CD/FEMALE, Route: ORAL, 300, 1000, 3000 PPM IN FEED FOR 102 WK (STUDY DURATION: 104 WK), 300, 1000, 3000 PPM IN FEED FOR 102 WK (STUDY DURATION: 104 WK), Tumor Site: Type of Lesion: SUBCUTANEOUS TISSUE: FIBROMA, FIBROMA OR FIBROSARCOMA, NASAL CAVITY: PAPILLARY ADENOMA, ADENOMA OR PAPILLARY ADENOMA, CA) and “active; positive” (Species: RAT, Strain/Sex: CD/MALE, Route: ORAL, 300, 1000, 3000 PPM IN FEED FOR 102 WK (STUDY DURATION: 104 WK), 300, 1000, 3000 PPM IN FEED FOR 102 WK (STUDY DURATION: 104 WK), Tumor Site: Type of Lesion: SUBCUTANEOUS TISSUE: FIBROMA, FIBROMA OR NEUROFIBROMA, FIBROMA OR FIBROSARCOMA, NASAL CAVITY: PAPILLARY ADENOMA, CARCINO).

With `O=S(=O)(O)c1ccc(N=Nc2c(O)ccc3cc(S(=O)(=O)O)ccc23)cc1`, the carcinogen call was “inactive; negative” (Species: MOUSE, Strain/Sex: B6C3F1/FEMALE, Route: ORAL, 12500, 25000 PPM IN DIET, 12500, 25000 PPM IN DIET); “inactive; negative” (Species: MOUSE, Strain/Sex: B6C3F1/MALE, Route: ORAL, 12500, 25000 PPM IN DIET, 12500, 25000 PPM IN DIET); “inactive; negative” (Species: MOUSE, Strain/Sex: SWISS-WEBSTER/FEMALE, Route: DERMAL, 1% IN 0.1 ML DISTILLED WATER 1/WK FOR 19.5 MO (STUDY DURATION: 19.5 MO)); “inactive; negative” (Species: MOUSE, Strain/Sex: SWISS-WEBSTER/MALE, Route: DERMAL, 1% IN 0.1 ML DISTILLED WATER 1/WK FOR 19.5 MO (STUDY DURATION: 19.5 MO)); “inactive; negative” (Species: RAT, Strain/Sex: F344/FEMALE, Route: ORAL, 12500, 25000 PPM IN DIET, 12500, 25000 PPM IN DIET); “inactive; negative” (Species: RAT, Strain/Sex: F344/MALE, Route: ORAL, 12500, 25000 PPM IN DIET, 12500, 25000 PPM IN DIET).
